# Results published in US20060129385A1, “Cholinergic therapy for individuals with learning disabilities” (priority 2002, published 2006).
# How the values were obtained:
# [1] = system: individuals with Down's Syndrome; assay: Test of Problem Solving (TOPS), 24 week open study of donepezil; type: in vivo, human
# Protocol: (§1) In the current study, we specifically examined the effects of donepezil and tested the hypothesis that expressive language performance in individuals with Down's Syndrome would improve with donepezil treatment. Language performance was measured with two objective measures, the Test of Problem Solving [Zachman et al., 1984] and the Clinical Evaluation of Language Fundamentals-Revised [Semel et al., 1986].
# Measures: The Test of Problem Solving [TOPS: Zachman et al., 1984]: The TOPS is an expressive language test that measures the ability to verbally identify reasonable solutions to problems presented via pictures. It has been used to assess pragmatic language ability in patients with AD. [Ripich et al., 1997]. The TOPS consists of 15 pictured scenarios with accompanying questions about each picture. The standard set of questions is designed to have the subject make inferences, to determine causes of particular events, to determine solutions to pictured problems, and to determine strategies for avoiding problems. The instrument was standardized on 1578 individuals (ages 6 years-0 months to 11 years-11 months). Age equivalent scores are provided for ages 3 years-5 months to 15 years-9 months. Validity and reliability data are available. TOPS raw scores for the overall [test as recommended by Powell, 1993] were determined by the average of two independent observers, one scoring onsite and a second scoring from audiotaped recordings of the test sessions.
# (§2) Derivation of Language Level: Due to the absence of appropriate standardized measures for adults with DS, relative language level was determined by comparing subtest performance (raw scores) to the average performance level for five-year-olds. The five year-old level was selected because it is the lowest age level in which both tests provide normative data. For this study, TOPS performance was based on age equivalent scores.
# (§3) Clinical Significance of Change: The clinical significance of the change in language performance following treatment was determined by comparing the difference in subject performance (between Baseline and treatment) to the amount of language improvement shown in one year by the average 5-year-old. For the TOPS, this index was the difference between the age equivalent score for children aged 5 years-0 months and the age equivalent score for children aged 6 years-0 months. For the CELF-R subtests, this index was difference between the mean raw scores for 5 year-olds and 6-year-olds.
# Statistical Analyses: The main comparisons were changes from Baseline (week 0) assessed by repeated measures. […] Similarly, while we hypothesized an improvement in expressive language, the acceptable p-value was not adjusted to reflect a one-tailed analysis. P-values at or below 0.05 were viewed as significant. Changes on standardized measures were viewed as clinically significant if the magnitude of the observed change was substantial in comparison to the level of performance gain typically achieved by children in the 12 month period between age 5 and age 6. Across all measures, the performance gain between age 5 and age 6 is the highest rate of language gain recorded for any 12-month period.
# [2] = system: individuals with Down's Syndrome; assay: Clinical Evaluation of Language Fundamentals-Revised (CELF-R), 24 week open study of donepezil; type: in vivo, human
# Protocol: as §1
# The Clinical Evaluation of Language Fundamentals-Revised (CELF-R: Semel et al., 1986]: The CELF-R is a diagnostic language test designed to assess language form and content, aspects of language generally regarded as fundamental to effective, oral—communication. Standardized expressive, receptive and overall language scores are derived from the summation of individual subtest scores. Typically, overall expressive and receptive language are evaluated by collapsing the subtest performance into a single receptive: or expressive language score. Individual subtest performance is analyzed for specific impairment within the broader expressive and receptive language domains. The instrument was standardized on 2,333 individuals (ages 5-0 to 16-11). Validity and reliability norms are available and adequate for each subtest.
# as §2, §3
# Statistical Analyses: The main comparisons were changes from Baseline (week 0) assessed by repeated measures. […] Similarly, while we hypothesized an improvement in expressive language, the acceptable p-value was not adjusted to reflect a one-tailed analysis. P-values at or below 0.05 were viewed as significant. […] Across all measures, the performance gain between age 5 and age 6 is the highest rate of language gain recorded for any 12-month period.
# [3] = system: individuals with Down's Syndrome
# Protocol: Subjects: After obtaining IRB approval and written informed consent, 5 males and […] with DS (confirmed by karyotyping), between the ages of 20-41 years (mean age=29 years), were enrolled in the trial. All subjects were verbal, able to hear speech at conversational level, and able to ingest oral medication. […] All individuals were evaluated for thyroid disorders and for Vitamin B 12 deficiency within 6 months of entry into the trial. […] Subject IQs ranged from 40 to 60 (mean IQ=52). The IQs of four subjects were determined during the baseline visit because testing had not been performed in the last 10 years. The IQ's of the two youngest subjects were determined from school records.
# Study Design: This was a 24 week open study at the General Clinical Outpatient Research Unit at Duke University in which subjects attended three sessions, Week 0 (Baseline), Week 12 (Treatment-12), and Week 24 (Termination). Due to scheduling limitations, the average first post-treatment visit was at Week 13 and the second post-treatment visit was at Week 25. A physical exam and language testing were completed at all sessions. A checklist for medication related adverse events was performed at Week 12 and at study termination. At the completion of the Baseline visit, donepezil was dosed orally at 5 mg once daily for 6 weeks. The dose was increased to 10 mg (two 5 mg tablets) daily for the remaining weeks if the 5 mg dose was well tolerated. This dosage schedule was based on experience from a previous trial [Kishnani et al 1999] and the donepezil package insert. Patients were monitored closely for safety and tolerability of the medication by regular phone calls in between scheduled visits. Two language measures were used, the Test of Problem Solving (TOPS) and the Clinical Evaluation of Language Fundamentals-Revised (CELF-R). The TOPS was completed at Baseline and at Weeks 12 and 24 of treatment. The CELF-R was completed at Baseline and at Week 24.
# [4] = system: DS patients; settings: human, in vivo; cited from earlier work
structure (smiles),measurement,setting,value
COc1cc2c(cc1OC)C(=O)C(CC1CCN(Cc3ccccc3)CC1)C2 (stereo not shown) [donepezil],"change in TOPS performance, Treatment-12 weeks vs. Termination","[1]; after 12 additional weeks of treatment (24 weeks), paired samples t=0.52, p=0.6313",No change
same,overall TOPS performance gain,"[1]; after 12 weeks of treatment vs Baseline, oral 5 mg once daily for 6 weeks, then 10 mg daily, adults with DS, paired t=4.5, p=0.0107",6.5
same,overall TOPS performance gain,"[1]; after 24 weeks of treatment (Termination) vs Baseline, oral 5 mg then 10 mg daily, paired t=1.10, p=0.0513",5.1
same,clinical significance: overall TOPS performance gain relative to gain expected by the average five-year-old in one year of development,[1]; after treatment,more than one-half
same,"performance on the TOPS, Baseline vs. Treatment-12 weeks","[1]; following 12 weeks of treatment, paired samples t=4.5, p=0.0107",significantly improved performance
same,CELF-R subtests showing gains,"[2]; following 24 weeks of donepezil treatment, n=5",5 of 6
same,significance of CELF-R subtest differences from baseline levels,"[2]; following 24 weeks of treatment, p=0.15-0.23 in three expressive subtests and Word Classes",None of the differences was significantly different
same,"gain in language performance on the CELF-R subtests, High Language Group","[2]; individuals with higher language skills at Baseline, n=2, following treatment",large gains
same,"gain on the CELF-R language measures, Low Language Group","[2]; individuals with lower language skills at Baseline, n=3, following treatment",little gain
same,subjects with mild cases of diarrhea,"[3]; at the 5 mg dosage, each case improved spontaneously",Five of six subjects
same,subjects reporting a transient decrease in appetite,"[3]; on the 10 mg dosage, six subjects",one subject
same,subjects reporting cramps for one day,[3]; six subjects,One subject
same,adverse effect reported in DS patients,[4],urinary incontinence
